As a reminder, the LD50 is the dose expected to kill half of the subjects tested. A low value points to greater toxicity. A word on the MIC: it is the lowest concentration found to suppress growth.

Structures can show the parent of a compound that is named as a salt. Where only a bound is given, the exact number is not on record here.

Consider 13 compounds from US4285941A, “Cephalosporin compounds and antibacterial drugs containing the same” (Eisai Co., Ltd., priority 1979, dated 1981).

Data set [1] in a line: Acute toxicity (LD50, mouse, oral). Particulars: in vivo. An excerpt:
The acute toxicity values [LD50 (mouse, oral)] for the following compounds, for example, were over 5 g/kg: […]

In data set [2] the test system is Serratia marcescens ES-75. Description: Minimal inhibitory concentration (MIC), standard agar dilution method. The format is cell-based. The conditions noted are these: ES75, Mueller Hinton agar, 37° C., 18 hours, Examples 1, 2, 4, 5, 6, 8 and 22 as sodium salts, others as free carboxylic acids. The protocol:
(§1) The compounds obtained in these examples were tested for their antibacterial activities in vitro. Minimal inhibitory concentration (MIC) was determined by the standard agar dilution method of the Japan Society of Chemotherapy. Compounds were dissolved in appropriate solvents (sterilized water for sodium salts and acetone-water [1:1] for free acids) and serial two-fold dilutions were made. Sodium salt of Cefazolin was chosen as the control compound. One-ml aliquots of each dilution were mixed with 9 ml of Mueller Hinton agar in petri-dishes to make agar plates containing the compound at serially diluted concentrations. After agar hardened, plates were put in an incubator at 37° C. for 1.5-2 hours with the lids slightly open to evaporate acetone off the plates. Test organisms were grown for 18 hours at 37° C. in Trypticase Soy broth and diluted in saline to approximately 10^6 colony forming units per ml. A loopful of each cell suspension was applied on the agar plate mentioned above and the plates were incubated for 18 hours at 37° C. before MIC was determined. MIC values of the compounds of Examples 1, 2, 4, 5, 6, 8 and 22 were determined as their sodium salts and those of other compounds as free carboxylic acids.
In general terms: In agar dilution the substance is mixed into plates at graded concentrations.

In a further data set the test system is Escherichia coli NIHJ. The description is as above. The format is cell-based. Particulars: Mueller Hinton agar, 37° C., 18 hours, Examples 1, 2, 4, 5, 6, 8 and 22 as sodium salts, others as free carboxylic acids. The protocol:
as §1

The test system of data set [3] is Pseudomonas aeruginosa EP-172. The description is as above. The format is cell-based. Particulars: EP172, Mueller Hinton agar, 37° C., 18 hours, Examples 1, 2, 4, 5, 6, 8 and 22 as sodium salts, others as free carboxylic acids. The protocol:
as §1

In another data set the test system is Proteus morganii EP-14. Described as above. The conditions noted are these: Morganella morganii, EP14; Mueller Hinton agar, 37° C., 18 hours; Examples 1, 2, 4, 5, 6, 8 and 22 as sodium salts, others as free carboxylic acids. Format: cell-based. The method, then: as §1
Data set [4] relates to Klebsiella pneumoniae EK-6. The data set is described as above. The format is cell-based. Particulars: EK6, Mueller Hinton agar, 37° C., 18 hours, Examples 1, 2, 4, 5, 6, 8 and 22 as sodium salts, others as free carboxylic acids. The method, then: as §1
In data set [5] the test system is Staphylococcus aureus 209-P. The data set is described as above. Format: cell-based. Particulars: Mueller Hinton agar, 37° C., 18 hours, Examples 1, 2, 4, 5, 6, 8 and 22 as sodium salts, others as free carboxylic acids. The protocol:
as §1

Turning to `Cc1nnc(SCC2=C(C(=O)O)N3C(=O)[C@@H](NC(=O)[C@H](NC(=O)c4coc5cc(O)c(O)cc5c4=O)c4ccc(O)cc4)[C@H]3SC2)s1` [Example 4, Sodium salt of 7β-[D-2-(6,7-dihydroxychromone-3-carboxamido)-2-(4-hydroxyphenyl)acetamido]-3-[(5-methyl-1,3,4-thiadiazol-2-yl)thiomethyl]-3-cephem-4-carboxylicacid], the LD50 in data set [1] is above 5000 mg/kg. The MIC in data set [2] was at most 0.1 µg/mL; with Escherichia coli NIHJ, 0.8 µg/mL; in data set [3], 1.56 µg/mL; in the data set on Proteus morganii EP-14, 1.56 µg/mL; in data set [4] it was at most 0.1 µg/mL; in data set [5] it was 1.56 µg/mL.
Turning to `CC(=O)Oc1cc2occ(C(=O)N[C@@H](C(=O)N[C@@H]3C(=O)N4C(C(=O)O)=C(CSc5nnnn5C)CS[C@H]34)c3ccccc3)c(=O)c2cc1OC(C)=O` [Example 5, Sodium salt of 7β-[D-2-(6,7-diacetoxychromone-3-carboxamido)-2-phenylacetamido]-3-[(1-methyltetrazol-5-yl)thiomethyl]-3-cephem-4-carboxylic acid], the LD50 in data set [1] was above 5000 mg/kg. Besides, the MIC was at most 0.1 µg/mL in data set [2]; 0.2 µg/mL in the data set with Escherichia coli NIHJ; 0.4 µg/mL in data set [3]; 0.4 µg/mL with Proteus morganii EP-14; at most 0.1 µg/mL in data set [4]; 1.56 µg/mL in data set [5].
As to `CC(=O)Oc1cc2c(=O)c(C(=O)N[C@@H](C(=O)N[C@@H]3C(=O)N4C(C(=O)O)=C(CSc5nnnn5C)CS[C@H]34)c3ccc(O)cc3)coc2c(OC(C)=O)c1OC(C)=O` [Example 29, 7β-[D-2-(6,7,8-Triacetoxychromone-3-carboxamido)-2-(4-hydroxyphenyl)acetamido]-3-[(1-methyltetrazol-5-yl)thiomethyl]-3-cephem-4-carboxylic acid], the MIC was 0.4 µg/mL in data set [2]; 1.56 µg/mL in the data set on Escherichia coli NIHJ; 0.4 µg/mL in data set [3]; 12.5 µg/mL in the data set on Proteus morganii EP-14; at most 0.1 µg/mL in data set [4]; 1.56 µg/mL in data set [5].
With `O=C(O)C1=C(CSc2nncs2)CS[C@@H]2[C@H](NC(=O)[C@H](NC(=O)c3coc4cc(O)c(O)cc4c3=O)c3ccc(O)cc3)C(=O)N12` [Example 19, 7β-[D-2-(6,7-Dihydroxychromone-3-carboxamido)-2-(4-hydroxyphenyl)acetamido]-3-[(1,3,4-thiadiazol-2-yl)thiomethyl]-3-cephem-4-carboxylic acid], the MIC is 0.2 µg/mL in data set [2]; 0.4 µg/mL with Escherichia coli NIHJ; 0.4 µg/mL in data set [3]; 12.5 µg/mL in the data set on Proteus morganii EP-14; at most 0.1 µg/mL in data set [4]; 0.8 µg/mL in data set [5].
On to `Cn1nnnc1SCC1=C(C(=O)O)N2C(=O)[C@@H](NC(=O)[C@H](NC(=O)c3coc4cc(O)ccc4c3=O)c3ccc(O)cc3)[C@H]2SC1` [Example 13, 7β-[D-2-(7-Hydroxychromone-3-carboxamido)-2-(4-hydroxyphenyl)acetamido]-3-[(1-methyltetrazol-5-yl)thiomethyl]-3-cephem-4-carboxylic acid], for which the MIC in data set [2] was 12.5 µg/mL; in the data set with Escherichia coli NIHJ, 6.25 µg/mL; in data set [3], 50 µg/mL; in the data set with Proteus morganii EP-14, 25 µg/mL; in data set [4] it was 12.5 µg/mL; in data set [5], 0.4 µg/mL.
For `Cn1nnnc1SCC1=C(C(=O)O)N2C(=O)[C@@H](NC(=O)[C@H](NC(=O)c3coc4c(O)c(O)ccc4c3=O)c3ccc(O)cc3)[C@H]2SC1` [Example 9, 7β-[D-2-(7,8-Dihydroxychromone-3-carboxamido)-2-(4-hydroxyphenyl)acetamido]-3-[(1-methyltetrazol-5-yl)thiomethyl]-3-cephem-4-carboxylic acid], the MIC was 3.13 µg/mL in data set [2]; 1.56 µg/mL in the data set on Escherichia coli NIHJ; 6.25 µg/mL in data set [3]; 12.5 µg/mL with Proteus morganii EP-14; at most 0.1 µg/mL in data set [4]; 0.8 µg/mL in data set [5].
Consider `CC(=O)Oc1cc2occ(C(=O)N[C@@H](C(=O)N[C@@H]3C(=O)N4C(C(=O)O)=C(CSc5nnc(C)s5)CS[C@H]34)c3ccccc3)c(=O)c2cc1OC(C)=O` [Example 6, 7β-[D-2-(6,7-Diacetoxychromone-3-carboxamido)-2-phenylacetamido]-3-[(5-methyl-1,3-4-thiadiazol-2-yl)thiomethyl]-3-cephem-4-carboxylic acid], for which the MIC in data set [2] was at most 0.1 µg/mL; in the data set on Escherichia coli NIHJ, 0.8 µg/mL; in data set [3], 3.13 µg/mL; in the data set with Proteus morganii EP-14, 0.8 µg/mL; in data set [4], at most 0.1 µg/mL; in data set [5] it was 1.56 µg/mL.
`CN(C)CCn1nnnc1SCC1=C(C(=O)O)N2C(=O)[C@@H](NC(=O)[C@H](NC(=O)c3coc4cc(O)c(O)cc4c3=O)c3ccc(O)cc3)[C@H]2SC1` [Example 21, 7β-[D-2-(6,7-Dihydroxychromone-3-carboxamido)-2-(4-hydroxyphenyl)acetamido]-3-{[1-(2-dimethylaminoethyl)tetrazol-5-yl]-thiomethyl}-3-cephem-4-carboxylic acid]: the MIC in data set [2] was at most 0.1 µg/mL; in the data set on Escherichia coli NIHJ, 0.4 µg/mL; in data set [3], 0.8 µg/mL; with Proteus morganii EP-14, 12.5 µg/mL; in data set [4], at most 0.1 µg/mL; in data set [5], 1.56 µg/mL.
On to `O=C(O)C1=C(CSc2ncccn2)CS[C@@H]2[C@H](NC(=O)[C@H](NC(=O)c3coc4cc(O)c(O)cc4c3=O)c3ccc(O)cc3)C(=O)N12` [Example 26, 7β-[D-2-(6,7-Dihydroxychromone-3-carboxamido)-2-(4-hydroxyphenyl)acetamido]-3-(2-pyrimidinylthiomethyl)-3-cephem-4-carboxylic acid], for which the MIC in data set [2] was 0.2 µg/mL; in the data set with Escherichia coli NIHJ, 0.8 µg/mL; in data set [3], 1.56 µg/mL; in the data set with Proteus morganii EP-14, 50 µg/mL; in data set [4] it was at most 0.1 µg/mL; in data set [5], 0.8 µg/mL.
`CC(=O)Oc1cc2occ(C(=O)N[C@@H](C(=O)N[C@@H]3C(=O)N4C(C(=O)O)=C(CSc5nnnn5C)CS[C@H]34)c3ccc(O)cc3)c(=O)c2cc1OC(C)=O` [Example 7, 7β-[D-2-(6,7-Diacetoxychromone-3-carboxamido)-2-(4-hydroxyphenyl)acetamido]-3-[(1-methyltetrazol-5-yl)thiomethyl]-3-cephem-4-carboxylic acid]: the MIC in data set [2] is at most 0.1 µg/mL; with Escherichia coli NIHJ, at most 0.1 µg/mL; in data set [3], 0.4 µg/mL; in the data set on Proteus morganii EP-14, 0.4 µg/mL; in data set [4], at most 0.1 µg/mL; in data set [5], 1.56 µg/mL.
Turning to `Cn1nnnc1SCC1=C(C(=O)O)N2C(=O)[C@@H](NC(=O)[C@H](NC(=O)c3coc4ccccc4c3=O)c3ccccc3)[C@H]2SC1` [Example 16, 7β-[D-2-(Chromone-3-carboxamido)-2-phenylacetamido]-3-[(1-methyltetrazol-5-yl)thiomethyl]-3-cephem-4-carboxylic acid], the minimal inhibitory concentration (MIC) in data set [2] is 3.13 µg/mL; in the data set with Escherichia coli NIHJ, 6.25 µg/mL; in data set [3], 25 µg/mL; with Proteus morganii EP-14, 6.25 µg/mL; in data set [4], 6.25 µg/mL; in data set [5], at most 0.1 µg/mL.
As to `CC(=O)Oc1ccc2c(=O)c(C(=O)N[C@@H](C(=O)N[C@@H]3C(=O)N4C(C(=O)O)=C(CSc5nnnn5C)CS[C@H]34)c3ccc(O)cc3)coc2c1OC(C)=O` [Example 11, 7β-[D-2-(7,8-Diacetoxychromone-3-carboxamido)-2-(4-hydroxyphenyl)acetamido] -3-[(1-methyltetrazol-5-yl)thiomethyl]-3-cephem-4-carboxylic acid], the MIC was 1.56 µg/mL in data set [2]; 0.8 µg/mL in the data set with Escherichia coli NIHJ; 6.25 µg/mL in data set [3]; 25 µg/mL in the data set on Proteus morganii EP-14; at most 0.1 µg/mL in data set [4]; 0.8 µg/mL in data set [5].
Regarding `CC(=O)Oc1cc2c(=O)c(C(=O)N[C@@H](C(=O)N[C@@H]3C(=O)N4C(C(=O)O)=C(CSc5nnnn5CC(=O)O)CS[C@H]34)c3ccc(O)cc3)coc2c(OC(C)=O)c1OC(C)=O` [Example 31, 7β-[D-2-(6,7,8-Triacetoxychromone-3-carboxamido)-2-(4-hydroxyphenyl)acetamido]-3-[(1-carboxymethyltetrazol-5-yl)thiomethyl]-3-cephem-4-carboxylicacid], the MIC in data set [2] is 0.8 µg/mL; in the data set on Escherichia coli NIHJ, 0.8 µg/mL; in data set [3], 0.8 µg/mL; in the data set on Proteus morganii EP-14, 25 µg/mL; in data set [4], at most 0.1 µg/mL; in data set [5], 12.5 µg/mL.
